{
  "source": "patent US8653000B2",
  "about": "“Imine substituted 2,4-diaryl-pyrroline derivatives as pesticides” (BASF SE, priority 2010, dated 2014)",
  "format_in_all_cases": "in vivo",
  "key": {"[1]": {"tested_on": "Silverleaf Whitefly (Bemisia Argentifolii)", "experiment": "Silverleaf whitefly spray test on cotton plants", "conditions": "at 300 ppm; cotton plants sprayed; 3 days after treatment", "from_the_text": "B.8 Silverleaf Whitefly (Bemisia Argentifolii)\n(§1) The active compounds were formulated in cyclohexanone as a 10,000 ppm solution supplied in tubes. The tubes were inserted into an automated electrostatic sprayer equipped with an atomizing nozzle and they served as stock solutions for which lower dilutions were made in 50% acetone:50% water (v/v). A nonionic surfactant (Kinetic) was included in the solution at a volume of 0.01% (v/v).\nCotton plants at the cotyledon stage (one plant per pot) were sprayed by an automated electrostatic plant sprayer equipped with an atomizing spray nozzle. The plants were dried in the sprayer fume hood and then removed from the sprayer. Each pot was placed into a plastic cup and about 10 to 12 whitefly adults (approximately 3-5 days old) were introduced. The insects were collected using an aspirator and a nontoxic Tygon® tubing connected to a barrier pipette tip. The tip, containing the collected insects, was then gently inserted into the soil containing the treated plant, allowing insects to crawl out of the tip to reach the foliage for feeding. Cups were covered with a reusable screened lid. […] Mortality was assessed 3 days after treatment, compared to untreated control plants."}, "[2]": {"tested_on": "Colorado Potato Beetle (Leptinotarsa Decemlineata)", "experiment": "Colorado potato beetle test on sprayed eggplant foliage", "conditions": "at 10 ppm, 4 days after treatment", "experimental": "B.13 Colorado Potato Beetle (Leptinotarsa Decemlineata)\nas §1, with “(Kinetic®)” for “(Kinetic)”\nEggplants were grown 2 plants to a pot and were selected for treatment at the 1st true leaf stage. Test solutions were sprayed onto the foliage by an automated electrostatic plant sprayer equipped with an atomizing spray nozzle. The plants were dried in the sprayer fume hood and then removed from the sprayer. The treated foliage was then cut and removed from the pot and placed in a 5-inch Petri dish lined with moistened filter paper. Five beetle larvae were introduced into each Petri dish and the dish was covered by a Petri dish lid. Petri dishes were maintained in a growth room at 25° C. and 20-40% relative humidity for 4 days, avoiding direct exposure to fluorescent light (24 hour photoperiod) to prevent trapping of heat inside the dishes. Mortality and reduced feeding were assessed 4 days after treatment, compared to untreated control plants."}, "[3]": {"tested_on": "Mediterranean fruitfly (Ceratitis capitata)", "experiment": "Mediterranean fruitfly microtiter plate test on insect diet with eggs", "conditions": "120 h, sprayed onto insect diet, egg and larval mortality after 5 days, read-out: mortality in comparison with untreated controls", "experimental": "B.5 Mediterranean Fruitfly (Ceratitis Capitata)\nFor evaluating control of Mediterranean fruitfly (Ceratitis capitata) the test unit consisted of microtiter plates containing an insect diet and 50-80 C. capitata eggs.\n(§2) The compounds were formulated using a solution containing 75% v/v water and 25% v/v DMSO. Different concentrations of formulated compounds were sprayed onto the insect diet at 5 μl, using a custom built micro atomizer, at two replications.\n(§3) After application, microtiter plates were incubated at about 28±1° C. and about 80±5% relative humidity for 5 days. Egg and larval mortality was then visually assessed."}, "[4]": {"tested_on": "boll weevil (Anthonomus grandis)", "experiment": "Boll weevil microtiter plate test on insect diet with eggs", "conditions": "120 h, sprayed onto insect diet, egg and larval mortality after 5 days, read-out: mortality in comparison with untreated controls", "experimental": "B.12 Boll Weevil (Anthonomus Grandis)\nFor evaluating control of boll weevil (Anthonomus grandis) the test unit consisted of 24-well-microtiter plates containing an insect diet and 20-30 A. grandis eggs.\nThe compounds were formulated using a solution containing 75% v/v water and 25% v/v DMSO. Different concentrations of formulated compounds were sprayed onto the insect diet at 20 μl, using a custom built micro atomizer, at two replications. After application, microtiter plates were incubated at about 23±1° C. and about 50±5% relative humidity for 5 days. Egg and larval mortality was then visually assessed."}, "[5]": {"tested_on": "Diamond Back Moth (Plutella Xylostella)", "experiment": "Diamond back moth leaf-dip test on Chinese cabbage", "conditions": "foliar, mortality recorded 24, 72 and 120 hours after treatment, read-out: mortality in comparison with untreated controls", "experimental": "B.3 Diamond Back Moth (Plutella Xylostella)\nLeaves of Chinese cabbage were dipped in test solution and air-dried. Treated leaves were placed in petri dished lined with moist filter paper. Mortality was recorded 24, 72, and 120 hours after treatment."}, "[6]": {"tested_on": "Cowpea Aphid (Aphis Craccivora)", "experiment": "Cowpea aphid spray test on potted cowpea plants", "conditions": "cowpea plants sprayed, population reduction assessed after 24, 72 and 120 hours, read-out: mortality in comparison with untreated controls", "experimental": "B.2 Cowpea Aphid (Aphis Craccivora)\nPotted cowpea plants colonized with approximately 100-150 aphids of various stages were sprayed after the pest population had been recorded. Population reduction was assessed after 24, 72, and 120 hours."}, "[7]": {"tested_on": "Orchid Thrips (Dichromothrips corbetti)", "experiment": "Orchid thrips floral-immersion test", "conditions": "96 h, after 4 days, read-out: mortality in comparison with untreated controls", "experimental": "B.6 Orchid Thrips (Dichromothrips corbetti)\nDichromothrips corbettiadults used for bioassay were obtained from a colony maintained continuously under laboratory conditions. For testing purposes, the test compound was diluted to a concentration of 500 ppm (wt compound: vol diluent) in a 1:1 mixture of acetone:water (vol:vol), plus 0.01% vol/vol Kinetic® surfactant.\nThrips potency of each compound was evaluated by using a floral-immersion technique. Plastic petri dishes were used as test arenas. All petals of individual, intact or chid flowers were dipped into treatment solution and allowed to dry. Treated flowers were placed into individual petri dishes along with 10-15 adult thrips. The petri dishes were then covered with lids. All test arenas were held under continuous light and a temperature of about 28° C. for duration of the assay. After 4 days, the numbers of live thrips were counted on each flower, and along inner walls of each petri dish. The level of thrips mortality was extrapolated from pre-treatment thrips numbers."}, "[8]": {"tested_on": "Red Spider Mite (Tetranychus Kanzawai)", "experiment": "Red spider mite spray test on potted cowpea beans", "conditions": "cowpea beans sprayed, after 72 h, read-out: mortality in comparison with untreated controls", "experimental": "B.14 Red Spider Mite (Tetranychus Kanzawai)\nThe active compound was dissolved at the desired concentration in a mixture of 1:1 (v/v) distilled water:acetone. A surfactant (Alkamuls® EL 620) was added at the rate of 0.1% (v/v).\nPotted cowpea beans of 7-10 days of age were cleaned with tap water and sprayed with 5 ml of the test solution using air driven hand atomizer. The treated plants were allowed to air dry and afterwards inculated with 20 or more mites by clipping a cassaya leaf section with known mite population. Treated plants were placed inside a holding room at about 25-27° C. and about 50-60% relative humidity.\nMortality was determined by counting the live mites 72 HAT. Percent mortality was assessed after 72 h."}, "[9]": {"tested_on": "Southern Armyworm (Spodoptera Eridania)", "experiment": "Southern armyworm spray test on lima bean plants", "conditions": "foliar, 96 h, lima bean foliage sprayed, 4 days after treatment, read-out: mortality in comparison with untreated controls", "experimental": "B.9 Southern Armyworm (Spodoptera Eridania)\nas §1, with “(Kinetic®)” for “(Kinetic)”\nLima bean plants (variety Sieva) were grown 2 plants to a pot and selected for treatment at the 1st true leaf stage. Test solutions were sprayed onto the foliage by an automated electrostatic plant sprayer equipped with an atomizing spray nozzle. The plants were dried in the sprayer fume hood and then removed from the sprayer. Each pot was placed into perforated plastic bags with a zip closure. About 10 to 11 armyworm larvae were placed into the bag and the bags zipped closed. Test plants were maintained in a growth room at about 25° C. and about 20-40% relative humidity for 4 days, avoiding direct exposure to fluorescent light (24 hour photoperiod) to prevent trapping of heat inside the bags. Mortality and reduced feeding was assessed 4 days after treatment, compared to untreated control plants."}, "[10]": {"tested_on": "tobacco budworm (Heliothis virescens)", "experiment": "Tobacco budworm microtiter plate test on insect diet with eggs", "conditions": "120 h, sprayed onto insect diet, egg and larval mortality after 5 days, read-out: mortality in comparison with untreated controls", "experimental": "B.11 Tobacco Budworm (Heliothis Virescens) I\nas §2, with “For evaluating control of tobacco budworm (Heliothis virescens) the test unit consisted of 96-well-microtiter plates containing an insect diet and 15-25 H. virescens eggs. The” for “The”, “at 10” for “at 5”\nas §3"}, "[11]": {"tested_on": "vetch aphid (Megoura viciae)", "experiment": "Vetch aphid test on broad bean leaf disks in 24-well plates", "conditions": "foliar, 120 h, sprayed onto leaf disks, 5 days, read-out: mortality in comparison with untreated controls", "experimental": "B.10 Vetch Aphid (Megoura Viciae)\nFor evaluating control of vetch aphid (Megoura viciae) through contact or systemic means the test unit consisted of 24-well-microtiter plates containing broad bean leaf disks.\nThe compounds were formulated using a solution containing 75% v/v water and 25% v/v DMSO. Different concentrations of formulated compounds were sprayed onto the leaf disks at 2.5 μl, using a custom built micro atomizer, at two replications.\nAfter application, the leaf disks were air-dried and 5-8 adult aphids placed on the leaf disks inside the microtiter plate wells. The aphids were then allowed to suck on the treated leaf disks and incubated at about 23±1° C. and about 50±5% relative humidity for 5 days. Aphid mortality and fecundity was then visually assessed."}, "[12]": {"tested_on": "green peach aphid (Myzus persicae)", "experiment": "Green peach aphid systemic test, artificial diet in 96-well plates", "conditions": "72 h, 3 days, read-out: mortality in comparison with untreated controls", "from_the_text": "B.4 Green Peach Aphid (Myzus Persicae)\nFor evaluating control of green peach aphid (Myzus persicae) through systemic means the test unit consisted of 96-well-microtiter plates containing liquid artificial diet under an artificial membrane.\nThe compounds were formulated using a solution containing 75% v/v water and 25% v/v DMSO. Different concentrations of formulated compounds were pipetted into the aphid diet, using a custom built pipetter, at two replications.\nAfter application, 5-8 adult aphids were placed on the artificial membrane inside the microtiter plate wells. The aphids were then allowed to suck on the treated aphid diet and incubated at about 23±1° C. and about 50±5% relative humidity for 3 days. Aphid mortality and fecundity was then visually assessed."}},
  "data": [
    {"compound": "O=C(NCC(F)(F)F)NN=Cc1ccc(C2=NCC(c3cc(Cl)cc(Cl)c3)(C(F)(F)F)C2)cc1Cl", "note": "(racemic) [Compound 2-3]", "values": [
      {"measurement": "mortality in comparison with untreated controls", "setting": "[1]", "value": "at least 75%"}
    ]},
    {"compound": "CNC(=O)NN=Cc1ccc(C2=NCC(c3cc(Cl)cc(Cl)c3)(C(F)(F)F)C2)cc1Cl", "note": "(racemic) [Compound 2-4]", "values": [
      {"measurement": "mortality in comparison with untreated controls", "setting": "[2]", "value": "at least 75%"}
    ]},
    {"compound": "Cc1cc(C2=NCC(c3cc(Cl)cc(Cl)c3)(C(F)(F)F)C2)ccc1/C=N/NC(=O)NCC(F)(F)F", "note": "(stereo not drawn) [Compound 1-3, 1-[(E)-[4-[3-(3,5-dichlorophenyl)-3-(trifluoromethyl)-2,4-dihydropyrrol-5-yl]-2-methyl-phenyl]methyleneamino]-3-(2,2,2-trifluoroethyl)urea]", "values": [
      {"measurement": "mortality at 2500 ppm", "setting": "[3]", "value": "≥ 75", "unit": "%"},
      {"measurement": "mortality at 2500 ppm", "setting": "[4]", "value": "≥ 75", "unit": "%"},
      {"measurement": "mortality at 500 ppm", "setting": "[5]", "value": "≥ 75", "unit": "%"},
      {"measurement": "mortality at 500 ppm", "setting": "[6]", "value": "≥ 75", "unit": "%"},
      {"measurement": "mortality at 500 ppm", "setting": "[7]", "value": "≥ 75", "unit": "%"},
      {"measurement": "mortality at 500 ppm", "setting": "[8]", "value": "≥ 75", "unit": "%"},
      {"measurement": "mortality at 1 ppm", "setting": "[9]", "value": "≥ 75", "unit": "%"},
      {"measurement": "mortality at 2500 ppm", "setting": "[10]", "value": "≥ 75", "unit": "%"},
      {"measurement": "mortality at 2500 ppm", "setting": "[11]", "value": "≥ 75", "unit": "%"},
      {"measurement": "mortality at 2500 ppm", "setting": "[12]", "value": "≥ 75", "unit": "%"}
    ]}
  ]
}
